Assay results as given in patent US20100130549A1, “PSYCHOTROPIC COMPOUNDS, COMPOSITIONS AND METHODS OF USE” (priority 2007, published 2010).

Assays:
[1] = tested on: BALB/c mice; test: Open field test
[2] = tested on: ICR male mice; test: Subchronic ip administration (toxicity); type: in vivo
Description: […]. Except for this local irritation no other toxicity was noted.
[…]. […] Except of these local irritations no other toxicity was noted.

[3] = tested on: BALB/c mice; test: Rotor rod test (motor activity); type: in vivo; conditions: 10 mg/kg p.o., 90 min after administration; vs controls
Experimental: The test was performed 90 min after oral administration of the compounds. […] The rotor rod test involves placing the mouse on an elevated rotating bar. In this test, the mouse is placed on the bar such that it is facing the direction opposite to the rotation of the rod. The time lag to fall is determined.

[4] = tested on: BALBc male mice; test: Hot plate test; type: in vivo; conditions: 10 mg/kg orally (sertraline equimolar); vs vehicle treated control
Description: The hot-plate test is widely used to measure pain sensation. The latency in response to heat of mice and rats feet is based on the method described by Eddy et al., Synthetic analgesics. II. […] The method is based on placing an animal on heated (52-56 C) surface and measuring the time to response (raising paw, licking of the paw, jumping or running.
The animals were followed for 6 hr.

[5] = 10 and 30 mg/kg ip ×3/week for 2 weeks, sertraline equimolar
[6] = 10 mg/kg (equimolar) ip 1 hr prior, p<0.001 vs controls

Row | Compound | sedative effect accompanying the anxiolytic activity ([1]; orally 90 min prior) | body weight gain versus controls [2, 5] | chemistry blood picture [2, 5] | histopathology of heart, spleen, liver and kidney ([2]; high dose of 30 mg/kg ip, subchronic, capsule of the abdominal organs) | muscle strength and basic motor activity [3] | latency to heat sensation [4] | total time spent in the center (areas 2+3) ([1]; 10 mg/kg (equimolar) ip 1 hr prior) | frequency to the center ([1]; 10 mg/kg (equimolar) ip 1 hr prior, controls 1.23) | distance moved [1, 6] | velocity [1, 6]
1 | OCCCC#Cc1cc2c(cc1OC[C@@H]1CNCC[C@H]1c1ccc(F)cc1)OCO2 [If] | not accompanied by a sedative effect |  |  |  |  |  |  |  |  | 
2 | CN[C@H]1CC[C@@H](c2ccc(Cl)c(Cl)c2)c2ccccc21 [sertraline, reference compound] |  | no difference | did not show a significant change | minimal to mild irritation | did not modify | significantly increase | significantly increase | 1.27 | significantly increase | significantly increase
